{"source": "paper PMC9229843", "about": "“Cancer-Related Somatic Mutations in Transmembrane Helices Alter Adenosine A1 Receptor Pharmacology” (Molecules, 2022)", "key": {"hA1AR S246T^6.47": {"target": "T1, hA1AR S246T^6.47 (Homo sapiens, UniProt P30542, S246T)", "T1 sequence (P30542 1-326 S246T)": "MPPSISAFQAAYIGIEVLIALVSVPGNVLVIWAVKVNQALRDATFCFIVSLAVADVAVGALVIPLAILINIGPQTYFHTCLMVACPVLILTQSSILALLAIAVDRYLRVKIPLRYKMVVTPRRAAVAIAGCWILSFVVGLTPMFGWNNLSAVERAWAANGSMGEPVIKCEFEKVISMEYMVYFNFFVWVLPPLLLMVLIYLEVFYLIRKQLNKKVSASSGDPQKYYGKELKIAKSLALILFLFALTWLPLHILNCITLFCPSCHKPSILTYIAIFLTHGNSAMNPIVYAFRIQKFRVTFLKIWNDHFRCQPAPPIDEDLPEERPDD", "conditions": "ratio over basal activity of wild type hA1AR; yeast; 7 mM 3-AT", "procedure": "The plasmids, pDT-PGK_hA1AR, containing either wild type or mutated hA1AR were transformed into a MMY24 S. cerevisiae strain following the lithium acetate procedure.\nIn order to characterize the mutant hA1ARs, liquid growth assays in 96-well plates were performed to obtain concentration–growth curves as previously described. […] The overnight cultures were then diluted to 40,000 cells/mL (OD600 ≈ 0.02) in a selective medium without uracil, leucine, and histidine (YNB-ULH). For the determination of constitutive activity, 50 μL of yeast cells and 150 μL of YNB-ULH medium containing different concentrations of 3-AT and 0.8 IU/mL ADA were then added to each well. […] After incubation at 30 °C for 35 h in a Genios plate reader (TECAN, Zürich, Switzerland) with shaking for 1 min at 300 rpm every 10 min, the optical density was measured at a wavelength of 595 nm, which represented the level of yeast cell growth.\n(§1) All experimental data were analyzed by GraphPad Prism 7.0 or 8.0 (GraphPad Software Inc., San Diego, CA, USA). Data from yeast liquid growth and [^35S]GTPγS binding assays were analyzed by non-linear regression using “log (agonist) vs. response (three parameters)” or “log (inhibitor) vs. response (three parameters)” to obtain potency (EC50), inhibitory potency (IC50), and efficacy (Emax or Imax) values. […]"}, "wild type hA1AR": {"target": "T2, wild type hA1AR (Homo sapiens, UniProt P30542)", "T2 sequence (P30542 1-326)": "T1 sequence (P30542 1-326 S246T) with T246S", "assay": "[3H]DPCPX radioligand displacement assay, CHO membranes", "type": "binding", "conditions": "fraction of high-affinity state; two-site model", "procedure": "(§2) Transient transfection of CHO cells with wild type or mutated hA1AR plasmid constructs was performed using a polyethylenimine (PEI) method. Cells were seeded in 10-cm culture dishes to achieve 50–60% confluency 24 h prior to transfection. On the day of transfection, cells were transfected with a PEI: DNA ratio of 3:1 and a plasmid DNA amount of 10 μg/dish. Moreover, 24 h post-transfection, the medium was refreshed, and 48 h after transfection, cells were collected and membranes were prepared as previously described. Membranes were aliquoted in 250 or 100 μL and stored at −80 °C. Membrane protein concentrations were determined using the BCA method.\n(§3) The displacement assays were performed as described previously. […] After the addition of 25 µL per well of the Microscint scintillation cocktail (PerkinElmer, Groningen, The Netherlands), the filter-bound radioactivity was measured by scintillation spectrometry in a Microbeta2® 2450 microplate counter (PerkinElmer).\nas §1"}, "hA1AR H78L^3.23": {"target": "T3, hA1AR H78L^3.23 (Homo sapiens, UniProt P30542, H78L)", "T3 sequence (P30542 1-326 H78L)": "T1 sequence (P30542 1-326 S246T) with H78L, T246S", "assay": "[3H]DPCPX radioligand displacement assay, CHO membranes", "type": "binding", "parameters": "expressed in transfected cells; host or cells: CHO cells, transient; membranes", "conditions": "fraction of high-affinity state; two-site model", "procedure": "as §2\nThe displacement assays were performed as described previously. […] Note, the number of cell membranes (10–25 µg) was adjusted to obtain (approximately) a 1500 DPM assay window for each mutant. […] Incubations were terminated after 1 h at 25 °C by rapid vacuum filtration through GF/B filter plates (PerkinElmer, Groningen, Netherlands) using a Perkin Elmer Filtermate-harvester. Afterward, filter plates were washed ten times with ice-cold buffer (50 mM Tris-HCl, pH 7.4) and dried at 55 °C for 30 min. After the addition of 25 µL per well of the Microscint scintillation cocktail (PerkinElmer, Groningen, The Netherlands), the filter-bound radioactivity was measured by scintillation spectrometry in a Microbeta2® 2450 microplate counter (PerkinElmer).\nAll experimental data were analyzed by GraphPad Prism 7.0 or 8.0 (GraphPad Software Inc., San Diego, CA, USA). Data from yeast liquid growth and [^35S]GTPγS binding assays were analyzed by non-linear regression using “log (agonist) vs. response (three parameters)” or “log (inhibitor) vs. response (three parameters)” to obtain potency (EC50), inhibitory potency (IC50), and efficacy (Emax or Imax) values. The radioligand displacement curves were obtained from a statistically preferred one-site or two-site binding model. pKi values were calculated from pIC50 values using the Cheng–Prusoff equation, where KD values were obtained from the homologous competition assays from this study and calculated by non-linear regression using “one site–homologous” [62]."}, "hA1AR G279S^7.44": {"target": "T4, hA1AR G279S^7.44 (Homo sapiens, UniProt P30542, G279S)", "T4 sequence (P30542 1-326 G279S)": "T1 sequence (P30542 1-326 S246T) with T246S, G279S", "assay": "[3H]DPCPX radioligand displacement assay, CHO membranes", "type": "binding", "parameters": "HA; expressed in transfected cells; host or cells: CHO cells, transient PEI transfection; membranes prepared", "conditions": "fraction of high-affinity state; two-site model", "procedure": "as §2, §3, §1"}}, "note": "Substitutions are numbered along the chain they refer to."}
{"smiles": "OC[C@H]1O[C@@H](n2cnc3c(NC4CCCC4)ncnc32)[C@H](O)[C@@H]1O", "note": "[CPA, N^6-cyclopentyladenosine]", "values": [{"measurement": "Emax", "setting": "hA1AR S246T^6.47", "result": "4.81 ± 0.26"}, {"measurement": "Fraction (High)", "setting": "wild type hA1AR", "result": "0.15 ± 0.03"}, {"measurement": "Fraction (High)", "setting": "hA1AR H78L^3.23", "result": "0.33 ± 0.04"}, {"measurement": "Fraction (High)", "setting": "hA1AR G279S^7.44", "result": "0.17 ± 0.04"}]}
